ChEMBL document CHEMBL1149795, “5,7-Dihydroxychromone-2-carboxylic acid and it's transition-metal (Mn and Zn) chelates as non-thiol radioprotective agents” (Eur J Med Chem, 2008)

Experiments:
[1] = test system: Mus musculus; test: Radioprotective activity against gamma-irradiation in NMRI mouse assessed as survival at 1.0 mmol/kg, sc administered 24 hrs prior to irradiation measured after 30 days; type: functional; details: light or radiation study
[2] = Toxicity against sc dosed NMRI mouse; type: organism-based; details: in vivo
[3] = test system: Mus musculus; test: Radioprotective activity against gamma-irradiation in NMRI mouse assessed as survival at 0.5 mmol/kg, sc administered 24 hrs prior to irradiation measured after 30 days; type: functional; details: light or radiation study
[4] = test system: Mus musculus; test: Radioprotective activity against gamma-irradiation in NMRI mouse assessed as survival at 0.5 mmol/kg, sc administered 1 hr prior to irradiation measured after 30 days; type: functional; details: light or radiation study

| Structure (SMILES) | survival at 1000 µmol/kg [1] [%] | LD50 [2] [mg/kg] | survival at 500 µmol/kg [3] [%] | survival at 500 µmol/kg [4] [%] |
| --- | --- | --- | --- | --- |
| O=C(O)c1cc(=O)c2c(O)cc(O)cc2o1 | 50 | > 1500 | 35 | – |
| NCCCNCCSP(=O)(O)O [AMIFOSTINE] | – | 609 | – | 81 |
